What all share (type): cell-based
One assay deals with COLO205 (colon). The assay can be described thus: Inhibition of cell proliferation, CellTiter-Glo, COLO205. Particulars: Homo sapiens, COLO 205, 72 h. An outline of the steps: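 Exponentially growing COLO205 cells in medium with 10% FBS were plated below 2000 cells/well at 37 °C, 5% CO2. Untreated wells served as controls.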
(ATP-based viability assays read luminescence as a measure of living cells.)

Assay [1] has as its target T1, IR (NIH-3T3 cells over expressing human IGF-1R or IR) (Homo sapiens, UniProt P06213).
T1 construct: expressed in transfected cells; host or cells: NIH-3T3 (mouse fibroblasts)
The assay can be described thus: IR cellular autophosphorylation (DELFIA). Particulars: NIH-3T3 cells over expressing IR, insulin stimulated. An outline of the steps:
(§1)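 Readout: DELFIA on lysates, with anti-IGF-1R or anti-IR capture and europium anti-pTyr detection, expressed relative to 100% ligand-stimulated signal. Human IGF-1R- or IR-overexpressing NIH-3T3 cells got compound (1.5 nM–30 uM) for 2 h before 15 min IGF-1 (30 ng/mL) or insulin (3 ug/mL).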

For assay [2], the target named is T2, human IGF-1R (NIH-3T3 cells over expressing human IGF-1R) (Homo sapiens, UniProt P08069).
T2 construct: expressed in transfected cells; host or cells: NIH-3T3 (mouse fibroblasts)
The assay can be described thus: IGF-1R cellular autophosphorylation (DELFIA). Conditions: IGF-1 stimulated. The method, boiled down: as §1

The record followed here is patent US20100216779A1 (GLAXOSMITHKLINE LLC, priority 2007, published 2010).

T2 sequence (P08069 31-1367): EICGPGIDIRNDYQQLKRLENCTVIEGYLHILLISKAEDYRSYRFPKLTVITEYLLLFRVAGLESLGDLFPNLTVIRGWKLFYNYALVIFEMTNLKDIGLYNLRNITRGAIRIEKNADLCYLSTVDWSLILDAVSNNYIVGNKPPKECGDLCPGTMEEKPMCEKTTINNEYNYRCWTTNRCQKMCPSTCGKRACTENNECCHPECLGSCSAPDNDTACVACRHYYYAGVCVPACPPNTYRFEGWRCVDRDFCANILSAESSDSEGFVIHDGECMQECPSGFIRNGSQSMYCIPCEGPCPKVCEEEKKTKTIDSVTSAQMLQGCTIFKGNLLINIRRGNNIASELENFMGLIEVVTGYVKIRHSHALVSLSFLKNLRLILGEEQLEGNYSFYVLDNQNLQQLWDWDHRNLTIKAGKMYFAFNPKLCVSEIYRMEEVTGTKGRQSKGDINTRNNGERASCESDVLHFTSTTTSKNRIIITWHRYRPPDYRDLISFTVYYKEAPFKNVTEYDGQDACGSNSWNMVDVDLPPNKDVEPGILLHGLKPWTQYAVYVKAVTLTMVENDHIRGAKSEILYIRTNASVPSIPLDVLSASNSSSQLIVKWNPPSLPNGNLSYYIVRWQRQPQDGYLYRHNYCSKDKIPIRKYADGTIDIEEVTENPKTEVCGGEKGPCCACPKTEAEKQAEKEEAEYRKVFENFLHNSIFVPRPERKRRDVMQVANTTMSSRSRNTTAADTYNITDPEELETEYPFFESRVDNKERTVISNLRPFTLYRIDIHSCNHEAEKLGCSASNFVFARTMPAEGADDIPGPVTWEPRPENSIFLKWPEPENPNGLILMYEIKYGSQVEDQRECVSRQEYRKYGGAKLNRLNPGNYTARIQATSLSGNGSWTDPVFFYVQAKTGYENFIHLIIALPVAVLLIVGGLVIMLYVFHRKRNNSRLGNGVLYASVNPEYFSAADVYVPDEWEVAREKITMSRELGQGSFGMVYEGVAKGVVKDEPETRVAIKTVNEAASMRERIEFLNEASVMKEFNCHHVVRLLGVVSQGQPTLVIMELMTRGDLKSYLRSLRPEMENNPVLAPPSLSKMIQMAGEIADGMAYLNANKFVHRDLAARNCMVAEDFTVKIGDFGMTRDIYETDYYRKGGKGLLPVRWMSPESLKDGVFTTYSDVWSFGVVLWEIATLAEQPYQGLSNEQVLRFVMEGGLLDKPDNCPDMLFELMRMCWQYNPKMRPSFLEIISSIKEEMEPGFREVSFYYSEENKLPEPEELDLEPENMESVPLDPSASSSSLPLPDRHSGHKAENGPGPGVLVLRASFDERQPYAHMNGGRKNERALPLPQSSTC
T1 sequence (P06213 28-1382): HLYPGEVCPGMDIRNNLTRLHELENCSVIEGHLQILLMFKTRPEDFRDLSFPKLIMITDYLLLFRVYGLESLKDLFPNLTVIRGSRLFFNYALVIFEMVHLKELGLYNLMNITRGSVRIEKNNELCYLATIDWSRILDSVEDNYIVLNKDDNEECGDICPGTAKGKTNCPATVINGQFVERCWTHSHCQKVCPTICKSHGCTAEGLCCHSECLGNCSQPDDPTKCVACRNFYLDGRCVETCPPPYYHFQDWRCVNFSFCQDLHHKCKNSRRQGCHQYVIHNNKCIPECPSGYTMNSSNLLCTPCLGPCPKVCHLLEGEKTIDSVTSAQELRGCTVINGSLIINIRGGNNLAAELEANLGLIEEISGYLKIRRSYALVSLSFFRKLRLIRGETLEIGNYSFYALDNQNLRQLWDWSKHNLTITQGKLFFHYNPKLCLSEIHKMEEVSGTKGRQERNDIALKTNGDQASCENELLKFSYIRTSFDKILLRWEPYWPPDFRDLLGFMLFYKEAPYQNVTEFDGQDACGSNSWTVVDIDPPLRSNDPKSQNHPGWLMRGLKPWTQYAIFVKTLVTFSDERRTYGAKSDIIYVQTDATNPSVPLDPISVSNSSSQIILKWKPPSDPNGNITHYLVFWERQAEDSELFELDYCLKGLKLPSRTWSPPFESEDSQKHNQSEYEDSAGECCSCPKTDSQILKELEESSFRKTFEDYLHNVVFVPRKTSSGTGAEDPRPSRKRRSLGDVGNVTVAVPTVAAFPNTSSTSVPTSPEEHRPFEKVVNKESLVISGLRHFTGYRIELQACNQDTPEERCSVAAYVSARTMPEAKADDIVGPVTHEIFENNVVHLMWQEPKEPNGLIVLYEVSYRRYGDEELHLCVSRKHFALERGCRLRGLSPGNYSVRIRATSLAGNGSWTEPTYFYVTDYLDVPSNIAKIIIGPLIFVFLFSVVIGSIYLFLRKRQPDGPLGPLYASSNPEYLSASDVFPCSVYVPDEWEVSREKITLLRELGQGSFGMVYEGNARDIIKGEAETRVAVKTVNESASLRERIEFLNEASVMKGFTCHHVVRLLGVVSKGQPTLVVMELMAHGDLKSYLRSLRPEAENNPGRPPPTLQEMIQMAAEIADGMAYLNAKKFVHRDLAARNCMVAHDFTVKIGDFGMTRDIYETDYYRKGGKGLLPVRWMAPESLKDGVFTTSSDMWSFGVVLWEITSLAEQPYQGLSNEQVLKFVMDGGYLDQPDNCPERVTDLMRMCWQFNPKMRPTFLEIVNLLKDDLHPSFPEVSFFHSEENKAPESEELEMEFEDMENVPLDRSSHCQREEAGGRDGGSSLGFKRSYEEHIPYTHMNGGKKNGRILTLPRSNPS

What is called IC50 is the point on the concentration scale where inhibition reaches its midpoint. On to `COc1cc(-c2nnc(CN(C)C)o2)ccc1Nc1nccc(-c2c(-c3ccc(OC)c(C(=O)Nc4c(F)cccc4F)c3)nc3ccccn23)n1` [Example 26, N-(2,6-difluorophenyl)-5-[3-(2-{[4-{5-[(dimethylamino)methyl]-1,3,4-oxadiazol-2-yl}-2-(methyloxy)phenyl]amino}-4-pyrimidinyl)imidazo[1,2-a]pyridin-2-yl]-2-(methyloxy)benzamide], for which the figures for the IC50 (in the assay with COLO205 (colon); in assay [1]; in assay [2]) were 250 to 1000 nM, more than 500 nM and less than 100 nM, respectively.
On the same counts, the results for `COc1cc(N2CCC[C@H](O)C2)ccc1Nc1nccc(-c2c(-c3cccc(C(=O)Nc4c(F)cccc4F)c3)nc3ccccn23)n1` [Example 169, N-(2,6-difluorophenyl)-3-[3-(2-{[4-[(3S)-3-hydroxy-1-piperidinyl]-2-(methyloxy)phenyl]amino}-4-pyrimidinyl)imidazo[1,2-a]pyridin-2-yl]benzamide] are 250 to 1000 nM, 100 to 500 nM and 100 to 500 nM.
Take `COc1cc(N2CCC(N3CCCCC3)CC2)ccc1Nc1nccc(-c2c(-c3cccc(C(=O)Nc4c(F)cccc4F)c3)nc3cc(C)ccn23)n1` [Example 18, 3-[3-(2-{[4-(1,4′-bipiperidin-1′-yl)-2-(methyloxy)phenyl]amino}-4-pyrimidinyl)-7-methylimidazo[1,2-a]pyridin-2-yl]-N-(2,6-difluorophenyl)benzamide]: the results for the IC50 (in the assay on COLO205 (colon); in assay [1]; in assay [2]) were 250 to 1000 nM, 100 to 500 nM and less than 100 nM, respectively.
Taken in the same sequence, the figures for `COc1ccc(-c2nc3ccccn3c2-c2ccnc(Nc3cccc(OCCN(C)C)c3)n2)cc1C(=O)Nc1c(F)cccc1F` [Example 1, N-(2,6-difluorophenyl)-5-(3-{2-[(3-{[2-(dimethylamino)ethyl]oxy}phenyl)-amino]-4-pyrimidinyl}imidazo[1,2-a]pyridin-2-yl)-2-(methyloxy)benzamide] were less than 250 nM, 100 to 500 nM and less than 100 nM.
On the same counts, the results for `CCCOc1cc(N2CCC(N3CCCCC3)CC2)ccc1Nc1nccc(-c2c(-c3cccc(C(=O)Nc4c(F)cccc4F)c3)nc3ccccn23)n1` [Example 33, 3-[3-(2-{[4-(1,4′-bipiperidin-1′-yl)-2-(propyloxy)phenyl]amino}-4-pyrimidinyl)imidazol[1,2-a]pyridin-2-yl]-N-(2,6-difluorophenyl)benzamide] are 250 to 1000 nM, 100 to 500 nM and less than 100 nM.
For `CC(C)COc1cc(N2CCC(N3CCCCC3)CC2)ccc1Nc1nccc(-c2c(-c3cccc(C(=O)Nc4c(F)cccc4F)c3)nc3ccccn23)n1` [Example 32, 3-{3-[2-({4-(1,4′-bipiperidin-1′-yl)-2-[(2-methylpropyl)oxy]phenyl}amino)-4-pyrimidinyl]imidazo[1,2-a]pyridin-2-yl}-N-(2,6-difluorophenyl)benzamide], the results for the IC50 (with COLO205 (colon); in assay [1]; in assay [2]) were 250 to 1000 nM, more than 500 nM and more than 500 nM, respectively.
Consider `COc1cc(N2CCC(N3CCCCC3)CC2)ccc1Nc1nccc(-c2c(-c3cccc(C(=O)Nc4c(F)cccc4F)c3)nc3c(C)cccn23)n1` [Example 43, 3-[3-(2-{[4-(1,4′-bipiperidin-1-yl)-2-(methyloxy)phenyl]amino}-4-pyrimidinyl)-8-methylimidazo[1,2-a]pyridin-2-yl]-N-(2,6-difluorophenyl)benzamide], for which the IC50 in the assay on COLO205 (colon) was 250 to 1000 nM; in assay [1], 100 to 500 nM; in assay [2], less than 100 nM.
For the compound `COc1cc(N2CCN(CCS(C)(=O)=O)CC2)ccc1Nc1nccc(-c2c(-c3cccc(C(=O)Nc4c(F)cccc4F)c3)nc3ccccn23)n1` [Example 136, N-(2,6-difluorophenyl)-3-(3-{2-[(2-(methyloxy)-4-{4-[2-(methylsulfonyl)ethyl]-1-piperazinyl}phenyl)amino]-4-pyrimidinyl}imidazo[1,2-a]pyridin-2-yl)benzamide], the results for the IC50 (with COLO205 (colon); in assay [1]; in assay [2]) were 250 to 1000 nM, less than 100 nM and less than 100 nM, respectively.
Consider `COc1ccn2c(-c3ccnc(Nc4cccc(OCCN(C)C)c4)n3)c(-c3cccc(C(=O)Nc4cccc(F)c4F)c3)nc2c1` [Example 15, N-(2,3-difluorophenyl)-3-[3-{2-[(3-{[2-(dimethylamino)ethyl]oxy}phenyl)amino]-4-pyrimidinyl}-7-(methyloxy)imidazo[1,2-a]pyridin-2-yl]benzamide], for which the figures for the IC50 (in the assay with COLO205 (colon); in assay [1]; in assay [2]) were less than 250 nM, more than 500 nM and 100 to 500 nM, respectively.
On the same counts, the results for `COc1cc(N2CCC(N3CCC(O)CC3)CC2)ccc1Nc1nccc(-c2c(-c3ccc(OC)c(C(=O)Nc4c(F)cccc4F)c3)nc3ccccn23)n1` [Example 81, N-(2,6-difluorophenyl)-5-[3-(2-{[4-(4-hydroxy-1,4′-bipiperidin-1′-yl)-2-(methyloxy)phenyl]-amino}-4-pyrimidinyl)imidazo[1,2-a]pyridin-2-yl]-2-(methyloxy)benzamide] are less than 250 nM, less than 100 nM and less than 100 nM.
Taken in the same sequence, the figures for `COc1cc(N2CCC(N3CCCCC3)CC2)ccc1Nc1nccc(-c2c(-c3ccc(OC)c(C(=O)Nc4c(F)cccc4F)c3)nc3ccccn23)n1` [Example 23, 5-[3-(2-{[4-(1,4′-bipiperidin-1-yl)-2-(methyloxy)phenyl]amino}-4-pyrimidinyl)imidazo[1,2-a]pyridin-2-yl]-N-(2,6-difluorophenyl)-2-(methyloxy)benzamide] were less than 250 nM, less than 100 nM and less than 100 nM.
On the same counts, the results for `COc1cc([C@H]2CC[C@@H](N3CCN(CCS(C)(=O)=O)CC3)CC2)ccc1Nc1nccc(-c2c(-c3cccc(C(=O)Nc4c(F)cccc4F)c3)nc3ccccn23)n1` [Example 93, N-(2,6-difluorophenyl)-3-[3-(2-{[2-(methyloxy)-4-(cis-4-{4-[2-(methylsulfonyl)-ethyl]-1-piperazinyl}cyclohexyl)phenyl]amino]-4-pyrimidinyl)imidazo[1,2-a]pyridin-2-yl]benzamide] are 250 to 1000 nM, less than 100 nM and less than 100 nM.
For `COc1cc(N2CCC(N3CCCC3)CC2)ccc1Nc1nccc(-c2c(-c3cccc(C(=O)Nc4c(F)cccc4F)c3)nc3ccccn23)n1` [Example 78, N-(2,6-difluorophenyl)-3-{3-[2-({2-(methyloxy)-4-[4-(1-pyrrolidinyl)-1-piperidinyl]-phenyl}amino)-4-pyrimidinyl]imidazo[1,2-a]pyridin-2-yl}benzamide], the IC50 with COLO205 (colon) is less than 250 nM; in assay [1] it was less than 100 nM; in assay [2], less than 100 nM.
For the compound `CCOc1cc(N2CCN(C3CCN(CCF)CC3)CC2)ccc1Nc1nccc(-c2c(-c3cccc(C(=O)Nc4c(F)cccc4F)c3)nc3ccccn23)n1` [Example 91, N-(2,6-difluorophenyl)-3-(3-{2-[(2-(ethyloxy)-4-{4-[1-(2-fluoroethyl)-4-piperidinyl]-1-piperazinyl}phenyl)amino]-4-pyrimidinyl}imidazo[1,2-a]pyridin-2-yl)benzamide], the IC50 in the assay with COLO205 (colon) is 250 to 1000 nM; in assay [1], less than 100 nM; in assay [2], less than 100 nM.
Take `COc1cc(N2CCC(N3CCCCC3)CC2)c(F)cc1Nc1nccc(-c2c(-c3ccc(OC)c(C(=O)Nc4c(F)cccc4F)c3)nc3ccccn23)n1` [Example 107, 5-[3-(2-{[4-(1,4′-bipiperidin-1′-yl)-5-fluoro-2-(methyloxy)phenyl]amino}-4-pyrimidinyl)imidazo[1,2-a]pyridin-2-yl]-N-(2,6-difluorophenyl)-2-(methyloxy)benzamide]: the figures for the IC50 (with COLO205 (colon); in assay [1]; in assay [2]) were 250 to 1000 nM, less than 100 nM and less than 100 nM, respectively.
Regarding `CCOc1cc(C2CCN(CCS(C)(=O)=O)CC2)ccc1Nc1nccc(-c2c(-c3cccc(C(=O)Nc4c(F)cccc4F)c3)nc3ccccn23)n1` [Example 183, N-(2,6-difluorophenyl)-3-(3-{2-[(2-(ethyloxy)-4-{1-[2-(methylsulfonyl)ethyl]-4-piperidinyl}phenyl)amino]-4-pyrimidinyl}imidazo[1,2-a]pyridin-2-yl)benzamide], the IC50 was 250 to 1000 nM in the assay on COLO205 (colon), less than 100 nM in assay [1] and less than 100 nM in assay [2].
For the compound `O=C(Nc1c(F)cccc1F)c1cccc(-c2nc3ccccn3c2-c2ccnc(Nc3ccc(N4CCC(N5CCCCC5)CC4)cc3)n2)c1` [Example 82, 3-[3-(2-{[4-(1,4′-bipiperidin-1′-yl)phenyl]amino}-4-pyrimidinyl)imidazo[1,2-a]pyridin-2-yl]-N-(2,6-difluorophenyl)benzamide], the IC50 in the assay with COLO205 (colon) is less than 250 nM; in assay [1] it was 100 to 500 nM; in assay [2] it was less than 100 nM.
Taken in the same sequence, the figures for `COc1ccn2c(-c3ccnc(Nc4ccc(N5CCC(N6CCCCC6)CC5)cc4OC)n3)c(-c3cccc(C(=O)Nc4c(F)cccc4F)c3)nc2c1` [Example 39, 3-[3-(2-{[4-(1,4′-bipiperidin-1′-yl)-2-(methyloxy)phenyl]amino}-4-pyrimidinyl)-7-(methyloxy)imidazo[1,2-a]pyridin-2-yl]-N-(2,6-difluorophenyl)benzamide] were more than 1000 nM, 100 to 500 nM and less than 100 nM.
Taken in the same sequence, the figures for `COc1cc(N2CCN(CCS(C)(=O)=O)CC2)ccc1Nc1nccc(-c2c(-c3ccc(OC)c(C(=O)Nc4c(F)cccc4F)c3)nc3ccccn23)n1` [Example 135, N-(2,6-difluorophenyl)-2-(methyloxy)-5-(3-{2-[(2-(methyloxy)-4-{4-[2-(methylsulfonyl)ethyl]-1-piperazinyl}phenyl)amino]-4-pyrimidinyl}imidazo[1,2-a]pyridin-2-yl)benzamide] were 250 to 1000 nM, less than 100 nM and less than 100 nM.
